Laboratory results published in publication PMC10932281, “A Combination of β-Aescin and Newly Synthesized Alkylamidobetaines as Modern Components Eradicating the Biofilms of Multidrug-Resistant Clinical Strains of Candida glabrata” (International Journal of Molecular Sciences, 2024).
Converted amounts (≈) assume the structure as drawn.

Assays:
Type in all cases: cell-based, Candida glabrata
[1] = tested on: C. glabrata 2853 clinical strain; test: MIC90/MFC, EUCAST broth microdilution; conditions: Nakaseomyces glabratus; for MFC: read-out: MFC; for MIC90: read-out: MIC90
[2] = tested on: C. glabrata 2853; test: Interaction of AABs (3 µM) with antifungal agents, modified checkerboard; conditions: for Multiplicity factor (MF) with C9: C9 3 µM; for MIC90 of antimycotic combined with C9: C9 at constant 3 µM; for MIC90 of antimycotic combined with C9 / MIC90 of antimycotic combined with C11 / MIC90 of antimycotic combined with C13 / MIC90 of antimycotic combined with C15: dilutions in µg/mL; for Multiplicity factor (MF) with C11: C11 3 µM; for MIC90 of antimycotic combined with C11: C11 at constant 3 µM; for Multiplicity factor (MF) with C13: C13 3 µM; for MIC90 of antimycotic combined with C13: C13 at constant 3 µM; for Multiplicity factor (MF) with C15: C15 3 µM; for MIC90 of antimycotic combined with C15: C15 at constant 3 µM
[3] = tested on: C. glabrata ATCC 90030; test: as above; conditions: for Multiplicity factor (MF) with C9: C9 3 µM, |MF| = MIC90 alone/MIC90 with AAB; for Multiplicity factor (MF) with C11: C11 3 µM; for MIC90 of antimycotic combined with C11: C11 at constant 3 µM; for Multiplicity factor (MF) with C13: C13 3 µM; for MIC90 of antimycotic combined with C13: C13 at constant 3 µM; for Multiplicity factor (MF) with C15: C15 3 µM
[4] = tested on: C. glabrata ATCC 90030; test: FICI checkerboard, β-aescin with antifungal drugs; conditions: for FICI: combination with β-aescin
[5] = tested on: C. glabrata 2586; test: FICI checkerboard, β-aescin with antifungal drugs
[6] = tested on: C. glabrata 2853; test: FICI checkerboard, β-aescin with antifungal drugs; conditions: for FICI: combination with β-aescin
[7] = tested on: C. glabrata 2586 clinical strain; test: MIC90/MFC, EUCAST broth microdilution; conditions: Nakaseomyces glabratus; for MFC: read-out: MFC; for MIC90: read-out: MIC90
[8] = tested on: C. glabrata 2586; test: Interaction of AABs (3 µM) with antifungal agents, modified checkerboard; conditions: for Multiplicity factor (MF) with C11: C11 3 µM; for MIC90 of antimycotic combined with C11: C11 at constant 3 µM; for Multiplicity factor (MF) with C13: C13 3 µM; for MIC90 of antimycotic combined with C13: C13 at constant 3 µM; for Multiplicity factor (MF) with C15: C15 3 µM; for Multiplicity factor (MF) with C9: C9 3 µM
[9] = tested on: C. glabrata ATCC 90030; test: MIC90/MFC, EUCAST broth microdilution; conditions: Nakaseomyces glabratus, ATCC90030, ATCC 90030; for MFC: read-out: MFC; for MIC90: read-out: MIC90
[10] = C9 at constant 3 µM, dilutions in µg/mL
[11] = C15 at constant 3 µM, dilutions in µg/mL

SMILES	MFC [1] [µg/mL]	MIC90 [1] [µg/mL]	Multiplicity factor (MF) with C9 [2]	MIC90 of antimycotic combined with C9 [2]	Multiplicity factor (MF) with C11 [2]	MIC90 of antimycotic combined with C11 [2]	Multiplicity factor (MF) with C13 [2]	MIC90 of antimycotic combined with C13 [2]	Multiplicity factor (MF) with C15 [2]	MIC90 of antimycotic combined with C15 [2]	Multiplicity factor (MF) with C9 [3]	Multiplicity factor (MF) with C11 [3]	MIC90 of antimycotic combined with C11 ([3]; dilutions in µg/mL)	Multiplicity factor (MF) with C13 [3]	MIC90 of antimycotic combined with C13 ([3]; dilutions in µg/mL)	Multiplicity factor (MF) with C15 [3]	Type of interaction with β-AE (by FICI) [4]	FICI [4]	FICI [6]	MFC [7] [µg/mL]	further results
C[C@@H](c1ncncc1F)[C@](O)(Cn1cncn1)c1ccc(F)cc1F [Voriconazole]	512 (≈ 1470 µM)	2 (≈ 5.73 µM)	1	2	2	1	2	1	128	256	64	64	8	64	8	64	additive	1	2.5	1020 (≈ 2930 µM)	Multiplicity factor (MF) with C9 ([2]; listed as voriconazole): did not alter the level of activity; Multiplicity factor (MF) with C11 ([2]; listed as voriconazole): twice; Multiplicity factor (MF) with C13 ([2]; listed as voriconazole): twice; MIC90 of antimycotic combined with C9 [3, 10]: 8; MIC90 of antimycotic combined with C15 [3, 11]: 8; FICI ([4]; listed as voriconazole): 1.0; Type of interaction with β-AE (by FICI) [5]: additive; MIC90 [7]: 512 µg/mL (≈ 1470 µM); MIC90 of antimycotic combined with C9 [8, 10]: 64; Multiplicity factor (MF) with C11 [8]: 64; MIC90 of antimycotic combined with C11 ([8]; dilutions in µg/mL): 8; Multiplicity factor (MF) with C13 [8]: 64; MIC90 of antimycotic combined with C13 ([8]; dilutions in µg/mL): 8; Multiplicity factor (MF) with C15 [8]: 64; MIC90 of antimycotic combined with C15 [8, 11]: 8; MFC [9]: 1020 µg/mL (≈ 2930 µM); MIC90 [9]: 512 µg/mL (≈ 1470 µM)
CC[C@@H]([C@H](C)O)n1ncn(-c2ccc(N3CCN(c4ccc(OC[C@@H]5CO[C@@](Cn6cncn6)(c6ccc(F)cc6F)C5)cc4)CC3)cc2)c1=O [Posaconazole]	256 (≈ 365 µM)	1 (≈ 1.43 µM)	8 (8)	8 (8)	4 (4)	4 (4)	4 (4)	4 (4)	256 (256)	256 (256)	two-fold	8	32	8	32	two-fold	additive	1	0.562	1020 (≈ 1460 µM)	Multiplicity factor (MF) with C9 ([2]; listed as posaconazole): 8; Multiplicity factor (MF) with C11 ([2]; listed as posaconazole): 4; Multiplicity factor (MF) with C13 ([2]; listed as posaconazole): 4; Multiplicity factor (MF) with C15 ([2]; listed as posaconazole): 256; FICI ([4]; listed as posaconazole): 1.0; FICI ([5]; combination with β-aescin): 1.002; Type of interaction with β-AE (by FICI) [6]: additive; MIC90 [7]: 512 µg/mL (≈ 731 µM); Multiplicity factor (MF) with C9 [8]: 1; Multiplicity factor (MF) with C9 ([8]; listed as posaconazole): not observed; Multiplicity factor (MF) with C11 [8]: 2; MIC90 of antimycotic combined with C11 ([8]; dilutions in µg/mL): 256; Multiplicity factor (MF) with C13 [8]: 2; MIC90 of antimycotic combined with C13 ([8]; dilutions in µg/mL): 256; Multiplicity factor (MF) with C15 [8]: 1; Multiplicity factor (MF) with C15 ([8]; listed as posaconazole): not observed; MFC [9]: 1020 µg/mL (≈ 1460 µM); MIC90 [9]: 256 µg/mL (≈ 365 µM)
